IC50 data for 4 compounds are collected here from article PMC11308014 (ACS Omega, 2024).

SMILES strings stand for the structures.

In the assay the target is T1, recombinant human dihydrofolate reductase (hDHFR) (Homo sapiens, UniProt P00374).
T1 construct: gene DHFR; commercial recombinant enzyme (R&D, Bio-Techne)
T1 sequence (P00374 1-187): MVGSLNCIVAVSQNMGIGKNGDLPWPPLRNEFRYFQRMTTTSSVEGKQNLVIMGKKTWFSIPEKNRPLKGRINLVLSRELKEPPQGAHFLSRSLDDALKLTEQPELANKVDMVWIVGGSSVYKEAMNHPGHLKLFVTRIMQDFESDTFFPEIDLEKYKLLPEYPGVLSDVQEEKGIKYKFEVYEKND
The assay can be described thus: NADPH oxidation, absorbance at […] nm. Format: biochemical.
For `CN(Cc1cnc2nc(N)nc(N)c2n1)c1ccc(C(=O)NCCCC(=O)O)cc1` [compound 4, 4], the IC50 (commonly the point on the concentration scale where inhibition reaches its midpoint) was 10 nM. On to `CN(Cc1cnc2nc(N)nc(N)c2n1)c1ccc(C(=O)NCCCCCC(=O)O)cc1` [compound 5, 5], for which the IC50 is 1210 nM.

On to `CN(Cc1cnc2nc(N)nc(N)c2n1)c1ccc(C(=O)NCCCCCCCC(=O)O)cc1` [compound 6, 6], for which the IC50 is 1010 nM. Regarding `CN(Cc1cnc2nc(N)nc(N)c2n1)c1ccc(C(=O)NCCS(=O)(=O)O)cc1` [compound 7, 7], the IC50 turned out to be 3030 nM.
